{
  "source": "patent US20240299469A1",
  "about": "“PRODUCTION OF INDOLE-DERIVED METABOLITES BY SHELF-STABLE COMMUNITIES OF SAFE BACTERIA” (Imvela Corp., priority 2023, published 2024)",
  "experiment": "Storage stability in pet chew matrix",
  "type": "physicochemical",
  "settings": "water activity (aw) 0.4, 4 weeks of storage",
  "method": "Stability of Bacillus Strains 1-3 was measured in a pet chew matrix with water activity (aw) level of 0.4, which is typically growth-prohibitive for other bacteria such as Lactobacillus. While Lactobacillus viability declined over 4 weeks of storage, Bacillus Strains 1-3 remained viable for 4 weeks, with loss of viability being less than <0.5 log 10 (FIGS. 3B and 3D).",
  "data": [
    {"substance": "Lactobacillus", "values": [
      {"measurement": "viability over storage", "result": "declined"}
    ]}
  ]
}
